The target of one experiment is T1, CDK9/CycT1 (Homo sapiens, UniProt P50750).
T1 construct: Recombinant full-length His-tagged human CDK9 and CycT1; His; purchased Invitrogen PV4131; host or cells: insect cells
Description: CDK9/CycT1 kinase assay (TR-FRET, Method 1a). Type of experiment: biochemical. Conditions: for IC50: Method 1a, 10 μM ATP; for Selectivity CDK9/CDK2: derived from Methods 1a. and 2. The text has this:
1a. CDK9/CyeT1 Kinase Assay:
CDK9/CycT1-inhibitory activity of compounds of the present invention was quantified employing the CDK9/CycT1 TR-FRET assay as described in the following paragraphs:
Recombinant full-length His-tagged human CDK9 and CycT1, expressed in insect cells and purified by Ni-NTA affinity chromatography, were purchased from Invitrogen (Cat. No PV4131). As substrate for the kinase reaction biotinylated peptide biotin-Ttds-YISPLKSPYKISEG (C-terminus in amid form) was used which can be purchased e.g. form the company JERINI Peptide Technologies (Berlin, Germany). For the assay 50 nl of a 100 fold concentrated solution of the test compound in DMSO was pipetted into a black low volume 384 well microtiter plate (Greiner Bio-One, Frickenhausen, Germany), 2 μl of a solution of CDK9/CycT1 in aqueous assay buffer [50 mM Tris/HCl pH 8.0, 10 mM MgCl2, 1.0 mM dithiothreitol, 0.1 mM sodium ortho-vanadate, 0.01% (v/v) Nonidet-P40 (Sigma)] were added and the mixture was incubated for 15 min at 22° C. to allow pre-binding of the test compounds to the enzyme before the start of the kinase reaction. Then the kinase reaction was started by the addition of 3 μl of a solution of adenosine-tri-phosphate (ATP, 16.7 μM=>final conc. in the 5 μl assay volume is 10 μM) and substrate (1.67 μM=>final conc. in the 5 μl assay volume is 1 μM) in assay buffer and the resulting mixture was incubated for a reaction time of 25 min at 22° C. The concentration of CDK9/CycT1 was adjusted depending of the activity of the enzyme lot and was chosen appropriate to have the assay in the linear range, typical concentrations were in the range of 1 μg/ml. The reaction was stopped by the addition of 5 μl of a solution of TR-FRET detection reagents (0.2 μM streptavidine-XL665 [Cisbio Bioassays, Codolet, France] and 1 nM anti-RB(pSer807/pSer811)-antibody from BD Pharmingen [#558389] and 1.2 nM LANCE EU-W1024 labeled anti-mouse IgG antibody [Perkin-Elmer, product no. AD0077]) in an aqueous EDTA-solution (100 mM EDTA, 0.2% (w/v) bovine serum albumin in 100 mM HEPES/NaOH pH 7.0).
The resulting mixture was incubated 1 h at 22° C. to allow the formation of complex between the phosphorylated biotinylated peptide and the detection reagents. Subsequently the amount of phosphorylated substrate was evaluated by measurement of the resonance energy transfer from the Eu-chelate to the streptavidine-XL. Therefore, the fluorescence emissions at 620 nm and 665 nm after excitation at 350 nm was measured in a HTRF reader, e.g. a Rubystar (BMG Labtechnologies, Offenburg, Germany) or a Viewlux (Perkin-Elmer). The ratio of the emissions at 665 nm and at […] was taken as the measure for the amount of phosphorylated substrate. The data were normalised (enzyme reaction without inhibitor=0% inhibition, all other assay components but no enzyme=100% inhibition).

Another experiment has as its system HeLa cells. Description: Proliferation assay (crystal violet), HeLa. Type of experiment: cell-based. The note with it: Homo sapiens, 96 h, 4 days, read-out: Inhibition of HeLa cell proliferation IC50. The protocol:
Cultivated tumour cells (HeLa, human cervical tumour cells, ATCC CCL-2; NCI-H460, human non-small cell lung carcinoma cells, ATCC HTB-177; A2780, human ovarian carcinoma cells, ECACC #93112519; DU 145, hormone-independent human prostate carcinoma cells, ATCC HTB-81; HeLa-MaTu-ADR, multidrug-resistant human cervical carcinoma cells, EPO-GmbH Berlin; Caco-2, human colorectal carcinoma cells, ATCC HTB-37; B 16F10, mouse melanoma cells, ATCC CRL-6475) were plated at a density of 5,000 cells/well (DU145, HeLa-MaTu-ADR), 3,000 cells/well (NCI-H460, HeLa), 2,500 cells/well (A2780), 1,500 cells/well (Caco-2), or 1,000 cells/well (B16F10) in a 96-well multititer plate in 200 μL of their respective growth medium supplemented 10% fetal calf serum. After 24 hours, the cells of one plate (zero-point plate) were stained with crystal violet (see below), while the medium of the other plates was replaced by fresh culture medium (200 to which the test substances were added in various concentrations (0 μM, as well as in the range of 0.001-10 μM; the final concentration of the solvent dimethyl sulfoxide was 0.5%). The cells were incubated for 4 days in the presence of test substances. Cell proliferation was determined by staining the cells with crystal violet: the cells were fixed by adding 20 μl/measuring point of an 11% glutaric aldehyde solution for 15 minutes at room temperature. After three washing cycles of the fixed cells with water, the plates were dried at room temperature. The cells were stained by adding 100 μl/measuring point of a 0.1% crystal violet solution (pH 3.0). After three washing cycles of the stained cells with water, the plates were dried at room temperature. The dye was dissolved by adding 100 μl/measuring point of a 10% acetic acid solution. The extinction was determined by photometry at a wavelength of 595 nm. The change of cell number, in percent, was calculated by normalization of the measured values to the extinction values of the zero-point plate (=0%) and the extinction of the untreated (0 μm) cells (=100%). The IC50 values (inhibitory concentration at 50% of maximal effect) were determined by means of a 4 parameter fit.

T1 sequence (P50750 whole entry): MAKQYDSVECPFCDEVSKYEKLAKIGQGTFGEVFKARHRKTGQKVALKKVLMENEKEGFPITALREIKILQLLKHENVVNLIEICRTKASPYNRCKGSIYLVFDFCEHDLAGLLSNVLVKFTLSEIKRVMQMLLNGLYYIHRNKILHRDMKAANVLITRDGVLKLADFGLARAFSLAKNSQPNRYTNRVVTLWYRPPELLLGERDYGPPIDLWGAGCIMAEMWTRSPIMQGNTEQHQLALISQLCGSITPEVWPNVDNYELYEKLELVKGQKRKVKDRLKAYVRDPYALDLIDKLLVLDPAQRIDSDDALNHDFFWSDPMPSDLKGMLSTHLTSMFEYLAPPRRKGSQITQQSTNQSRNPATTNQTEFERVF
T1 sequence (O60563 whole entry partner): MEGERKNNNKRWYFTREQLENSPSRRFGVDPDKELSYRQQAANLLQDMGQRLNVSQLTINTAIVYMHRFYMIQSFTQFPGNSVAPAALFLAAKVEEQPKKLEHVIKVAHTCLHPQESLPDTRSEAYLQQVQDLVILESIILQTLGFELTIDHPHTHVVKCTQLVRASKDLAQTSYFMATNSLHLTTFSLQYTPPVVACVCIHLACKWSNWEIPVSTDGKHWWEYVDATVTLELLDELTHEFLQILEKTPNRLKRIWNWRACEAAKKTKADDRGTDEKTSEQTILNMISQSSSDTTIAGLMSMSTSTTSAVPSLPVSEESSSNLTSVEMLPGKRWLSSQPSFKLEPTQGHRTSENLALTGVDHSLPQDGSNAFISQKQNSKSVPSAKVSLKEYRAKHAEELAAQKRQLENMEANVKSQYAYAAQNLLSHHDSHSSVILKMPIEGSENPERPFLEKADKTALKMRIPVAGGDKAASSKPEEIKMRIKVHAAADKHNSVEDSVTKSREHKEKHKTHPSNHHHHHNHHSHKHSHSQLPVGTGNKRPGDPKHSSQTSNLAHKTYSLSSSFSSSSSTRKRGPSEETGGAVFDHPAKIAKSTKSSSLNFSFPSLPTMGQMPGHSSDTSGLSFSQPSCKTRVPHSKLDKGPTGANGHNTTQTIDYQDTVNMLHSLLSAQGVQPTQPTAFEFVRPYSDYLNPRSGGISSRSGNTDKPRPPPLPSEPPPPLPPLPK

On to `CS(=O)(=O)Cc1cccc(Nc2ncc(F)c(-c3ccc(F)cc3F)n2)c1` [Example 5, 4-(2,4-Difluorophenyl)-5-fluoro-N-{3-[(methylsulfonyl)methyl]phenyl}pyrimidin-2-amine], for which, on CDK9/CycT1, the IC50 was 51 nM and the “Selectivity CDK9/CDK2” value came to 9.1.
As for `CCCS(=O)(=O)Cc1cccc(Nc2ncc(F)c(-c3ccc(F)cc3F)n2)c1` [Example 8, 4-(2,4-difluorophenyl)-5-fluoro-N-{3-[(propylsulfonyl)methyl]phenyl}pyrimidin-2-amine], at CDK9/CycT1, the IC50 was 39 nM and the “Selectivity CDK9/CDK2” value is reported as 15. The IC50 in the experiment on HeLa cells was found to be 3000 nM.
`CS(=O)(=O)Cc1cc(F)cc(Nc2ncc(F)c(-c3ccc(F)cc3F)n2)c1` [Example 10, 4-(2,4-Difluorophenyl)-5-fluoro-N-{3-fluoro-5-[(methylsulfonyl)methyl]phenyl}pyrimidin-2-amine]: at CDK9/CycT1, the IC50 was determined as 130 nM and the “Selectivity CDK9/CDK2” value is on record as 28. The IC50 with HeLa cells was determined as 3000 nM.
On to `COCCS(=O)(=O)Cc1cccc(Nc2ncc(F)c(-c3ccc(F)cc3F)n2)c1` [Example 4, 4-(2,4-Difluorophenyl)-5-fluoro-N-(3-{[(2-methoxyethyl)sulfonyl]methyl}phenyl)pyrimidin-2-amine], for which, on CDK9/CycT1, the IC50 stood at 130 nM and the “Selectivity CDK9/CDK2” value stood at 20.
With `CC(C)(C)S(=O)(=O)Cc1cccc(Nc2ncc(F)c(-c3ccc(F)cc3F)n2)c1` [Example 3, N-{3-[(tert-Butylsulfonyl)methyl]phenyl}-4-(2,4-difluorophenyl)-5-fluoropyrimidin-2-amine], at CDK9/CycT1, the IC50 stood at 110 nM and the “Selectivity CDK9/CDK2” value is 10. The IC50 in the experiment on HeLa cells came to 3000 nM.
On to `CC(C)S(=O)(=O)Cc1cccc(Nc2ncc(F)c(-c3ccc(F)cc3F)n2)c1` [Example 2, 4-(2,4-Difluorophenyl)-5-fluoro-N-{3-[(propan-2-ylsulfonyl)methyl]phenyl}pyrimidin-2-amine], for which, on CDK9/CycT1, the IC50 is 50 nM and the “Selectivity CDK9/CDK2” value was found to be 24. The IC50 in the experiment with HeLa cells turned out to be 3000 nM.
For `CS(=O)(=O)Cc1cc(Nc2ncc(F)c(-c3ccc(F)cc3F)n2)cc(S(F)(F)(F)(F)F)c1` [Example 6, 4-(2,4-Difluorophenyl)-5-fluoro-N-{3-[(methylsulfonyl)methyl]-5-(pentafluoro-λ^6-sulfanyl)phenyl}pyrimidin-2-amine], at CDK9/CycT1, the IC50 was 14 nM and the “Selectivity CDK9/CDK2” value was 122. In addition, the IC50 in the experiment with HeLa cells was 617 nM.
Taken in the same sequence, the figures for `CS(=O)(=O)Cc1cc(F)cc(Nc2ncc(F)c(-c3ccc(F)c(F)c3F)n2)c1` [Example 12, 5-fluoro-N-{3-fluoro-5-[(methylsulfonyl)methyl]phenyl}-4-(2,3,4-trifluorophenyl)pyrimidin-2-amine] were 25 nM, 14 and 1000 nM.
Taken in the same sequence, the figures for `O=S(=O)(Cc1cccc(Nc2ncc(F)c(-c3ccc(F)cc3F)n2)c1)C1CC1` [Example 9, N-{3-[(Cyclopropylsulfonyl)methyl]phenyl}-4-(2,4-difluorophenyl)-5-fluoropyrimidin-2-amine] were 13 nM, 32 and 3000 nM.
Turning to `CS(=O)(=O)Cc1cc(F)cc(Nc2ncc(F)c(-c3cc(F)c(F)cc3F)n2)c1` [Example 11, 5-Fluoro-N-{3-fluoro-5-[(methylsulfonyl)methyl]phenyl}-4-(2,4,5-trifluorophenyl)pyrimidin-2-amine], on CDK9/CycT1, the IC50 is 74 nM and the “Selectivity CDK9/CDK2” value is reported as over 270. Besides, in the experiment with HeLa cells, the IC50 stood at 2960 nM.
On to `CCCS(=O)(=O)Cc1cc(F)cc(Nc2ncc(F)c(-c3ccc(F)cc3F)n2)c1` [Example 13, 4-(2,4-Difluorophenyl)-5-fluoro-N-{3-fluoro-5-[(propylsulfonyl)methyl]phenyl}pyrimidin-2-amine], for which, on CDK9/CycT1, the IC50 was determined as 13 nM and the “Selectivity CDK9/CDK2” value turned out to be 44. For the same molecule, the IC50 with HeLa cells was 3000 nM.

(Values after patent US20150259300A1, “4-(ORTHO)-FLUOROPHENYL-5-FLUOROPYRIMIDIN-2-YL AMINES CONTAINING A SULFONE GROUP” (BAYER PHARMA AKTIENGESELLSCHAFT, priority 2012, published 2015).)
